{"source": "paper PMC7733455", "about": "“A novel multistage antiplasmodial inhibitor targeting Plasmodium falciparum histone deacetylase 1” (Cell Discovery, 2020)", "key": {"[1]": {"target": "T1, hHDAC8 (Homo sapiens, UniProt Q9BY41)", "T1 construct": "purchased BPS Bioscience 50008", "T1 sequence (Q9BY41 whole entry)": "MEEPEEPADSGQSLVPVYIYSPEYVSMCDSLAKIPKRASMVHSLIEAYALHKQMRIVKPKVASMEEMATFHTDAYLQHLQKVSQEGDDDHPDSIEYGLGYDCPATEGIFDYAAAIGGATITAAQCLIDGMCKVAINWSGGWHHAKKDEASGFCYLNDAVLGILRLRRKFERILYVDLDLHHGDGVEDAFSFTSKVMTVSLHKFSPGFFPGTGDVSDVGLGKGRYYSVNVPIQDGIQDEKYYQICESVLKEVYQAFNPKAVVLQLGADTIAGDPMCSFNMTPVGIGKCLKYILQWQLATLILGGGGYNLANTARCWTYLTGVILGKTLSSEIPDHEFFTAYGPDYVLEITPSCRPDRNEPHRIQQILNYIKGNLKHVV", "test": "Human HDAC inhibition assay, hHDAC8", "format": "biochemical", "conditions": "performed only once; read-out: Inhibitory Activity IC50, hHDAC8", "description": "(§1) SAHA and suramin were used as positive controls. The tested compounds were dissolved into 20 mM stock in 100% DMSO. […] Ten microliters of trypsin and Ac-peptide substrate/Tris buffer solution were added to start the reaction, followed by a 1-h incubation at room temperature for HDACs 1–3 and 6. Ten microliters of Ac-peptide substrate/Tris buffer solution was added to start the reaction, followed by a 4-h incubation at room temperature and a further 2-h incubation with trypsin solution for HDAC8 and Sirt 2. […] This experiment was performed only once."}, "[2]": {"test_system": "drug-sensitive and multidrug-resistant strains of P. falciparum", "test": "3-day SYBR Green I GIA, summary over several strains", "format": "cell-based", "conditions": "Plasmodium falciparum", "description": "(§2) A 3-day SYBR Green I inhibition EC50 assay was performed as described previously. Briefly, highly synchronized ring-stage parasites by 5% sorbitol (1% parasitemia and 2% hematocrit) were incubated in a 96-well plate with compounds in a total volume of 200 μL. […] The parasites were cultured for 72 h before SYBR Green I staining as described above. The EC50 was calculated by GraphPad Prism. DHA was used as a positive control, and the final concentration of DMSO was 1%."}, "[3]": {"test_system": "3D7^HDAC1-glmS", "test": "Sensitivity of transgenic parasites to JX21108, 3D7^HDAC1-glmS", "format": "cell-based, Plasmodium falciparum", "description": "Highly synchronized schizont-stage parasites were prepared and treated as described above, with adjustments. […] After washing, parasites were cultured in new CM for another 68 h. Parasite growth was monitored by SYBR Green I staining, as described above. The EC50 was calculated by GraphPad Prism."}, "[4]": {"test": "Liver microsome metabolism assay, rat", "format": "in vitro ADME", "conditions": "rat liver microsomes", "description": "Liver microsomes (0.5 mg/mL) were purchased from Corning. Ketanserin was selected as a positive control. The tested compounds were first dissolved in DMSO to a concentration of 10 mM and then diluted to 0.5 mM with acetonitrile. Liver microsome buffer was used to dilute the compounds to a working concentration of 1.5 µM, 30 µL of which was mixed with 15 µL of 6 mM NADPH at 37 °C. At 0, 5, 15, 30, and 45 min after incubation, 135 µL of acetonitrile was added to quench the reaction. The mixture was shaken on a vortex mixer (IKA, MTS 2/4) for 10 min at 600 rpm/min and then centrifuged at 5594× g for 15 min (Thermo Multifuge×3R). The supernatant was diluted 1:1 into distilled water, and analyzed by LC-MS/MS."}, "[5]": {"test_system": "P. falciparum isolate 6218", "test": "3-day SYBR Green I GIA, field isolate 6218", "format": "cell-based", "conditions": "Plasmodium falciparum; artemisinin- and piperaquine-resistant isolate; read-out: Resistant isolates EC50, 6218", "description": "as §2"}, "[6]": {"test_system": "P. falciparum clinical isolates 6218 and 6320", "test": "Ring-stage survival assay (RSA), isolates 6218 and 6320", "format": "cell-based, Plasmodium falciparum", "conditions": "700 nM, isolates 6218 and 6320", "description": "An RSA was performed as described previously[65] to evaluate the activity of JX21108 against the artemisinin- and piperaquine-resistant P. falciparum clinical isolates 6218 and 6320[43]. Briefly, parasites were highly synchronized at 0–3 hpi by a 60%/40%-Percoll gradient[66] followed by 5% D-sorbitol[67] treatment after 3 h. The parasite suspension (0.5%–1% parasitemia, 2% hematocrit) was incubated with compounds at 700 nM in a total volume of 2 mL in a 48-well plate for 6 h. After that, the culture mixture was washed three times with 15 mL of CM before another 66 h of cultivation with CM. A Giemsa-stained blood smear was made after cultivation. Parasitemia was counted from at least 10,000 RBCs by microscopy. The survival rate was calculated as the percentage of that in DMSO control. DHA at a concentration of 700 nM served as a positive control."}, "[7]": {"test_system": "P. falciparum 3D7", "test": "Stage-specific parasite inhibition assay", "format": "cell-based, Plasmodium falciparum", "conditions": "40 nM", "description": "To analyze the stage-specific parasite inhibition, highly synchronized parasites were cultured in 24-well plates with a starting parasitemia of 1% at a hematocrit of 2%. After 12 h of culture with the tested compounds at a concentration of 40 nM, parasites were washed three times to remove the compounds, and parasitemia was diluted 1:40 by new RBCs into CM for another 4 days of culture. DMSO was used as a blank control. Parasitemia was counted by flow cytometry. Flow cytometry was conducted as described previously. Briefly, the parasite-infected RBCs were fixed in 4% formaldehyde/0.015% glutaraldehyde for 30 min at room temperature and incubated with 500 μL of a SYBR green staining solution (Invitrogen) (1:5000) in 1× PBS (phosphate-buffered saline, pH 7.4, without calcium and magnesium). Cells were washed three times with 1× PBS prior to flow-cytometry analysis on a MoFloAstrios EQ instrument (BECKMAN COULTER). RBCs (5 × 10^5) were measured (excitation 488 nm; emission detection FL1 513 ± 26 nm), and a value of 5 on FL1 (SYBR Green intensity) was applied as a threshold to identify (gate) the infected RBCs (iRBCs). Acquired data were processed using the FlowJo software (v.10.0.5)."}, "[8]": {"test_system": "P. falciparum isolate 6320", "test": "3-day SYBR Green I GIA, field isolate 6320", "format": "cell-based", "conditions": "Plasmodium falciparum; artemisinin- and piperaquine-resistant isolate; read-out: Resistant isolates EC50, 6320", "description": "as §2"}, "[9]": {"test_system": "asynchronous 3D7 parasites", "test": "Time- and dose-dependent parasite inhibition assay", "format": "cell-based, Plasmodium falciparum", "description": "Asynchronous parasites (2% parasitemia, 4% hematocrit) were treated with the tested compounds at a concentration of 10, 30, 60, or 100 nM, respectively. At 3, 6, 12, and 24 h post treatment, parasitemia of each sample was detected by flow cytometry to investigate the time-dependent activity. Parasites from the same treatment were further washed to remove compounds, and parasitemia was diluted 1:40 by new RBCs into CM for an additional 4 days of culture. Parasitemia of each sample was detected by flow cytometry as described above to investigate the dose-dependent activity. DMSO was used as a blank control."}, "[10]": {"test_system": "human HDACs", "test": "Human HDAC inhibition assay, summary", "format": "biochemical", "description": "as §1"}}, "note": "Where two headings read alike, the source gives them in different places."}
{"smiles": "Cl.Cn1cc(CN2CCC3(CCN(c4ncc(C(=O)NO)cn4)C3)C2)c2cc(C#N)ccc21", "note": "(stereo not shown) [JX21108]", "values": [{"measurement": "IC50", "setting": "[1]", "result": 62, "unit": "nM"}, {"measurement": "EC50", "setting": "[2]; three strains tested, read-out: EC50 values on strains GB4, C2A and CP286", "result": "2 to 8", "unit": "nM"}, {"measurement": "EC50", "setting": "[2]; variety of geographically representative strains, read-out: EC50 against drug-sensitive and multidrug-resistant strains of P. falciparum", "result": "2 to 7", "unit": "nM"}, {"measurement": "shift in sensitivity on PfHDAC1 KD", "setting": "[3]; 3D7^HDAC1-glmS vs 3D7^HDAC1-TY1", "result": 5.5, "unit": "fold"}, {"measurement": "EC50", "setting": "[3]; Plasmodium falciparum, 3D7, 4 h, read-out: EC50 for 3D7^HDAC1-glmS", "result": "20.5 ± 6.95", "unit": "nM"}, {"measurement": "CLint scaled at 1 µM", "setting": "[4]; read-out: CL in liver microsomes", "result": 196, "unit": "mL/min/kg"}, {"measurement": "half-life at 1 µM", "setting": "[4]; read-out: T1/2 in liver microsomes", "result": 12.7, "unit": "min"}, {"measurement": "EC50", "setting": "[5]", "result": "2.2 ± 0.2", "unit": "nM"}, {"measurement": "RSA effect on ring-stage parasites", "setting": "[6]", "result": "greatly inhibited parasite growth at ring stage of 6218 and 6320"}, {"measurement": "stage dependence of parasite killing (parasitemia at 4 dpi)", "setting": "[7]; 12-h treatment", "result": "treatment at the schizont stage was more active in parasite killing than that at the ring and trophozoite stages"}, {"measurement": "asexual development of parasites to the next cycle", "setting": "[7]; 12-h treatment at ring, trophozoite and schizont stages", "result": "strongly block the asexual development of parasites to the next cycle"}, {"measurement": "EC50", "setting": "[8]", "result": "2.6 ± 0.2", "unit": "nM"}, {"measurement": "parasite growth after 3 h of treatment", "setting": "[9]; 100 nM, 3 h, washed, 4 days culture", "result": "completely blocked parasite growth"}, {"measurement": "parasitemia measured 4 days after 6-h treatment", "setting": "[9]; 6-h treatment, washed, 1:40 dilution, 4 days culture", "result": "substantial reduction in parasitemia"}, {"measurement": "asexual growth of 3D7 after 12- and 24-h treatments", "setting": "[9]; 10-100 nM, parasitemia immediately after treatment", "result": "significantly inhibited the asexual growth of 3D7 parasites"}, {"measurement": "lower inhibitory activity on human HDACs than quisinostat", "setting": "[10]", "result": "approximately 4 fold"}]}
